# Test results: US20230093099A1, “COMPOUNDS AND METHODS OF TREATING CANCERS” (CULLGEN (SHANGHAI), INC., priority 2019, published 2023)
# System: RS4;11 cells
# Test: Cell viability assay (CellTiter-Glo) in RS4;11 cells
# Format: cell-based
# Conditions: Homo sapiens, 72 h; RS4;11 ALL cells treated for three days; read-out: cell viability inhibition IC50
# Procedure, shortened: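 RS4;11 cells seeded at 5000 per well, exposed for 3 days to 8- or 12-point 3-fold serial dilutions. Viability read by CellTiter-Glo luminescence; IC50 fitted by nonlinear least-squares regression.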
row,IC50 [µM],SMILES
1,< 0.1,"CS(=O)(=O)c1ccc(-c2cccc3nc(Nc4ccc(N5CCN(C(=O)CCCCCCNc6ccc7c(c6)C(=O)N(C6CCC(=O)NC6=O)C7=O)CC5)cc4)nn23)cc1 (stereo not shown) [JA-199, 2-(2,6-dioxopiperidin-3-yl)-5-((7-(4-(4-((5-(4-(methylsulfonyl)phenyl)-[1,2,4]triazolo[1,5-a]pyridin-2-yl)amino)phenyl)piperazin-1-yl)-7-oxoheptyl)amino)isoindoline-1,3-dione]"
2,< 0.1,"O=C1CCC(N2C(=O)c3ccc(NCCCCC(=O)N4CCC(n5cc(-c6cnc7cccc(-c8cc(F)c(CN9CCOCC9)c(F)c8)c7n6)cn5)CC4)cc3C2=O)C(=O)N1 (stereo not shown) [JA-182, 5-((5-(4-(4-(8-(3,5-difluoro-4-(morpholinomethyl)phenyl)quinoxalin-2-yl)-1H-pyrazol-1-yl)piperidin-1-yl)-5-oxopentyl)amino)-2-(2,6-dioxopiperidin-3-yl)isoindoline-1,3-dione]"

# Same assay, conditions: Homo sapiens, 72 h; RS4;11 cells; cell viability, 3 days, CellTiter-Glo; read-out: IC50
row,SMILES,IC50 [µM]
1,"Cc1cnc(Nc2ccc(N3CCN(CC(=O)NCCCCCCCC(=O)N[C@H](C(=O)N4C[C@H](O)C[C@H]4C(=O)NCc4ccc(-c5scnc5C)cc4)C(C)(C)C)CC3)cc2)nc1Nc1cccc(S(=O)(=O)NC(C)(C)C)c1 [JA-103, (2S,4R)-1-((S)-2-(8-(2-(4-(4-((4-((3-(N-(tert-Butyl)sulfamoyl)phenyl)amino)-5-methylpyrimidin-2-yl)amino)phenyl)piperazin-1-yl)acetamido)octanamido)-3,3-dimethylbutanoyl)-4-hydroxy-N-(4-(4-methylthiazol-5-yl)benzyl)pyrrolidine-2-carboxamide]",8.96
2,"Cc1cnc(Nc2ccc(N3CCN(C(=O)CCCCCCCCC(=O)N[C@H](C(=O)N4C[C@H](O)C[C@H]4C(=O)NCc4ccc(-c5scnc5C)cc4)C(C)(C)C)CC3)cc2)nc1Nc1cccc(S(=O)(=O)NC(C)(C)C)c1 [JA-028, (2S,4R)-1-((S)-2-(10-(4-(4-((4-((3-(N-(tert-Butyl)sulfamoyl)phenyl)amino)-5-methylpyrimidin-2-yl)amino)phenyl)piperazin-1-yl)-10-oxodecanamido)-3,3-dimethylbutanoyl)-4-hydroxy-N-(4-(4-methylthiazol-5-yl)benzyl)pyrrolidine-2-carboxamide]",> 10
3,"Cc1ncsc1-c1ccc(CNC(=O)[C@@H]2C[C@@H](O)CN2C(=O)[C@@H](NC(=O)CCOCCOCCOCCOCCC(=O)N2CCC(n3cc(-c4cnc5cccc(-c6cc(F)c(CN7CCOCC7)c(F)c6)c5n4)cn3)CC2)C(C)(C)C)cc1 [JA-061, (2S,4R)-1-[(2S)-2-[3-[2-[2-[2-[3-[4-[4-[8-[3,5-Difluoro-4-(morpholinomethyl)phenyl]quinoxalin-2-yl]pyrazol-1-yl]-1-piperidyl]-3-oxo-propoxy]ethoxy]ethoxy]ethoxy]propanoylamino]-3,3-dimethyl-butanoyl]-4-hydroxy-N-[[4-(4-methylthiazol-5-yl)phenyl]methyl]pyrrolidine-2-carboxamide]",> 10
4,"CS(=O)(=O)c1ccc(-c2cccc3nc(Nc4ccc(N5CCN(CC(=O)NCCOCCOCCOCCNc6ccc7c(c6)C(=O)N(C6CCC(=O)NC6=O)C7=O)CC5)cc4)nn23)cc1 (stereo not shown) [JA-209, N-(2-(2-(2-(2-((2-(2,6-Dioxopiperidin-3-yl)-1,3-dioxoisoindolin-5-yl)amino)ethoxy)ethoxy)ethoxy)ethyl)-2-(4-(4-((5-(4-(methylsulfonyl)phenyl)-[1,2,4]triazolo[1,5-a]pyridin-2-yl)amino)phenyl)piperazin-1-yl)acetamide]",> 10
5,"CS(=O)(=O)c1ccc(-c2cccc3nc(Nc4ccc(N5CCN(C(=O)CCCCCCNc6cccc7c6C(=O)N(C6CCC(=O)NC6=O)C7=O)CC5)cc4)nn23)cc1 (stereo not shown) [JA-078, 2-(2,6-Dioxo-piperidin-3-yl)-4-[7-(4-{4-[5-(4-methanesulfonyl-phenyl)-[1,2,4]triazolo[1,5-a]pyridin-2-ylamino]-phenyl}-piperazin-1-yl)-7-oxo-heptylamino]-isoindole-1,3-dione]",> 10
6,"Cc1cnc(Nc2ccc(N3CCN(C(=O)CCOCCNc4cccc5c4C(=O)N(C4CCC(=O)NC4=O)C5=O)CC3)cc2)nc1Nc1cccc(S(=O)(=O)NC(C)(C)C)c1 (stereo not shown) [JA-017, N-(tert-Butyl)-3-((2-((4-(4-(3-(2-((2-(2,6-dioxopiperidin-3-yl)-1,3-dioxoisoindolin-4-yl)amino)ethoxy)propanoyl)piperazin-1-yl)phenyl)amino)-5-methylpyrimidin-4-yl)amino)benzenesulfonamide]",> 10
7,"CS(=O)(=O)c1ccc(-c2cccc3nc(Nc4ccc(N5CCN(C(=O)CCOCCOCCOCCOCCOCCNc6ccc7c(c6)C(=O)N(C6CCC(=O)NC6=O)C7=O)CC5)cc4)nn23)cc1 (stereo not shown) [JA-193, 2-(2,6-Dioxopiperidin-3-yl)-5-((18-(4-(4-((5-(4-(methylsulfonyl)phenyl)-[1,2,4]triazolo[1,5-a]pyridin-2-yl)amino)phenyl)piperazin-1-yl)-18-oxo-3,6,9,12,15-pentaoxaoctadecyl)amino)isoindoline-1,3-dione]",> 10
8,"CS(=O)(=O)c1ccc(-c2cccc3nc(Nc4ccc(N5CCN(CC(=O)NCCOCCOCCOCCOCCOCCNc6ccc7c(c6)C(=O)N(C6CCC(=O)NC6=O)C7=O)CC5)cc4)nn23)cc1 (stereo not shown) [JA-211, N-(17-((2-(2,6-Dioxopiperidin-3-yl)-1,3-dioxoisoindolin-5-yl)amino)-3,6,9,12,15-pentaoxaheptadecyl)-2-(4-(4-((5-(4-(methylsulfonyl)phenyl)-[1,2,4]triazolo[1,5-a]pyridin-2-yl)amino)phenyl)piperazin-1-yl)acetamide]",> 10
9,"Cn1c(=O)n(C2CCC(=O)NC2=O)c2cccc(NCCCCCC(=O)N3CCN(c4ccc(Nc5nc6cccc(-c7ccc(S(C)(=O)=O)cc7)n6n5)cc4)CC3)c21 (stereo not shown) [JA-284, 3-(3-Methyl-4-((6-(4-(4-((5-(4-(methylsulfonyl)phenyl)-[1,2,4]triazolo[1,5-a]pyridin-2-yl)amino)phenyl)piperazin-1-yl)-6-oxohexyl)amino)-2-oxo-2,3-dihydro-1H-benzo[d]imidazol-1-yl)piperidine-2,6-dione]",> 0.5
10,"CS(=O)(=O)c1ccc(-c2cccc3nc(Nc4ccc(N5CCN(C(=O)CCOCCNc6ccc7c(c6)C(=O)N(C6CCC(=O)NC6=O)C7=O)CC5)cc4)nn23)cc1 (stereo not shown) [JA-195, 2-(2,6-Dioxopiperidin-3-yl)-5-((2-(3-(4-(4-((5-(4-(methylsulfonyl)phenyl)-[1,2,4]triazolo[1,5-a]pyridin-2-yl)amino)phenyl)piperazin-1-yl)-3-oxopropoxy)ethyl)amino)isoindoline-1,3-dione]",> 10
11,O=C1CCC(N2C(=O)c3ccc(NCC(=O)N4CCC(n5cc(-c6cnc7cccc(-c8cc(F)c(CN9CCOCC9)c(F)c8)c7n6)cn5)CC4)cc3C2=O)C(=O)N1 (stereo not shown) [JA-191],9.5
12,"Cc1ncsc1-c1ccc(CNC(=O)[C@@H]2C[C@@H](O)CN2C(=O)[C@@H](NC(=O)CCOCCOCCOCCOCCNC(=O)CN2CCC(n3cc(-c4cnc5cccc(-c6cc(F)c(CN7CCOCC7)c(F)c6)c5n4)cn3)CC2)C(C)(C)C)cc1 [JA-167, (2S,4R)-1-((S)-20-(tert-Butyl)-1-(4-(4-(8-(3,5-difluoro-4-(morpholinomethyl)phenyl)quinoxalin-2-yl)-1H-pyrazol-1-yl)piperidin-1-yl)-2,18-dioxo-6,9,12,15-tetraoxa-3,19-diazahenicosan-21-oyl)-4-hydroxy-N-(4-(4-methylthiazol-5-yl)benzyl)pyrrolidine-2-carboxamide]",> 10

# Continued by falling IC50, values first:
row,IC50 [µM],SMILES
1,3.41,"CS(=O)(=O)c1ccc(-c2cccc3nc(Nc4ccc(N5CCN(C(=O)CCCNc6ccc7c(c6)C(=O)N(C6CCC(=O)NC6=O)C7=O)CC5)cc4)nn23)cc1 (stereo not shown) [JA-216, 2-(2,6-Dioxopiperidin-3-yl)-5-((4-(4-(4-((5-(4-(methylsulfonyl)phenyl)-[1,2,4]triazolo[1,5-a]pyridin-2-yl)amino)phenyl)piperazin-1-yl)-4-oxobutyl)amino)isoindoline-1,3-dione]"
2,3.34,"CS(=O)(=O)c1ccc(-c2cccc3nc(Nc4ccc(N5CCN(C(=O)CNc6cccc7c6C(=O)N(C6CCC(=O)NC6=O)C7=O)CC5)cc4)nn23)cc1 (stereo not shown) [JA-014, 2-(2,6-Dioxo-piperidin-3-yl)-4-[2-(4-{4-[5-(4-methanesulfonyl-phenyl)-[1,2,4]triazolo[1,5-a]pyridin-2-ylamino]-phenyl}-piperazin-1-yl)-2-oxo-ethylamino]-isoindole-1,3-dione]"
3,2.27,"Cc1cnc(Nc2ccc(N3CCN(C(=O)CCCCNc4cccc5c4C(=O)N(C4CCC(=O)NC4=O)C5=O)CC3)cc2)nc1Nc1cccc(S(=O)(=O)NC(C)(C)C)c1 (stereo not shown) [JA-107, N-(tert-Butyl)-3-((2-((4-(4-(5-((2-(2,6-dioxopiperidin-3-yl)-1,3-dioxoisoindolin-4-yl)amino)pentanoyl)piperazin-1-yl)phenyl)amino)-5-methylpyrimidin-4-yl)amino)benzenesulfonamide]"
4,1.26,"O=C1CCC(N2C(=O)c3cccc(NCCOCCC(=O)N4CCC(n5cc(-c6cnc7cccc(-c8cc(F)c(CN9CCOCC9)c(F)c8)c7n6)cn5)CC4)c3C2=O)C(=O)N1 (stereo not shown) [JA-045, 4-[2-[3-[4-[4-[8-[3,5-Difluoro-4-(morpholinomethyl)phenyl]quinoxalin-2-yl]pyrazol-1-yl]-1-piperidyl]-3-oxo-propoxy]ethylamino]-2-(2,6-dioxo-3-piperidyl)isoindoline-1,3-dione]"
5,0.298,"CS(=O)(=O)c1ccc(-c2cccc3nc(Nc4ccc(N5CCN(CCCCCCCc6ccc7c(c6)C(=O)N(C6CCC(=O)NC6=O)C7=O)CC5)cc4)nn23)cc1 (stereo not shown) [JA-253, 2-(2,6-Dioxopiperidin-3-yl)-5-(7-(4-(4-((5-(4-(methylsulfonyl)phenyl)-[1,2,4]triazolo[1,5-a]pyridin-2-yl)amino)phenyl)piperazin-1-yl)heptyl)isoindoline-1,3-dione]"
6,0.164,"O=C1CCC(N2C(=O)c3ccc(OCCCCCC(=O)N4CCC(n5cc(-c6cnc7cccc(-c8cc(F)c(CN9CCOCC9)c(F)c8)c7n6)cn5)CC4)cc3C2=O)C(=O)N1 (stereo not shown) [JA-260, 5-((6-(4-(4-(8-(3,5-Difluoro-4-(morpholinomethyl)phenyl)quinoxalin-2-yl)-1H-pyrazol-1-yl)piperidin-1-yl)-6-oxohexyl)oxy)-2-(2,6-dioxopiperidin-3-yl)isoindoline-1,3-dione]"
7,0.0325,"CS(=O)(=O)c1ccc(-c2cccc3nc(Nc4ccc(N5CCN(C(=O)CCCCCCNc6ccc7c(c6)C(=O)N(C6CCC(=O)NC6=O)C7=O)CC5)cc4)nn23)cc1 (stereo not shown) [JA-199, 2-(2,6-dioxopiperidin-3-yl)-5-((7-(4-(4-((5-(4-(methylsulfonyl)phenyl)-[1,2,4]triazolo[1,5-a]pyridin-2-yl)amino)phenyl)piperazin-1-yl)-7-oxoheptyl)amino)isoindoline-1,3-dione]"
8,0.0138,"O=C1CCC(N2C(=O)c3ccc(NCCCCC(=O)N4CCC(n5cc(-c6cnc7cccc(-c8cc(F)c(CN9CCOCC9)c(F)c8)c7n6)cn5)CC4)cc3C2=O)C(=O)N1 (stereo not shown) [JA-182, 5-((5-(4-(4-(8-(3,5-difluoro-4-(morpholinomethyl)phenyl)quinoxalin-2-yl)-1H-pyrazol-1-yl)piperidin-1-yl)-5-oxopentyl)amino)-2-(2,6-dioxopiperidin-3-yl)isoindoline-1,3-dione]"
